The test system of assay [1] is control or iPSC/BLVRB^S111L cells (NCRM1 iPSCs). As to the kind of experiment: TBHP-induced ROS accumulation in genetically-modified iPSCs (CellROX Green, flow cytometry). The assay is classed as cell-based. The following applies: Homo sapiens, 1 hour at 37° C., read-out: concentration causing ROS accumulation in 50% of cells (EC50). The procedure: FIG. 3i is a bar graph showing ROS expression by genetically-modified NCRM1 iPSCs. About 1×10^5, cells were labeled as in FIG. 2h, and treated (or not) with 200 μM tert-butyl hydroperoxide (TBHP) for 1 hour at 37° C., and ROS-expressing cells were quantitated by flow cytometry after a 60 minute period loading with cell-permeable CellROX Green (500 nM) as indicator (N=6); p-values *<0.05; **<0.01; ***<0.001; ****<0.0001. From left to right, the bars correspond to activity in control cells, activity in cells having BLVRB^WT, and activity in cells having BLVRB^S111L.
Hematopoietic-derived (CD34^+) induced pluripotent stein cells (iPSC) expressing endogenous BLVRB were initially developed as heterozygous models designed to phenocopy zygosity state in subject cohorts. […]
Human CD34^+-derived NCRM1 induced pluripotent stem cells (iPSC) were genetically modified using lentivirus infection (MOI 9) for generation of stable cell lines after puromycin selection (iPSC/BLVRB^S111L, iPSC/BLVRB^WT, iPSC/Control). Oxidation/reduction activity was quantified in vitro using the NADPH-dependent redox coupler resazurin; cells (4×10^4/well) were plated and propagated in mTeSR1 medium and at 24 hours were incubated with resazurin (0.1 v/v) followed by serial spectrofluorimetric detection (530 nm excitation, 590 nm emission) for the reduced resorufin byproduct. […]
(A flow cytometer gives signals particle by particle.)

Assay [2] has as its target T1, biliverdin IX beta reductase (BLVRB) (Homo sapiens, UniProt P30043).
T1 construct: BLVRBWT and BLVRBS111L open reading frames were PCR-amplified and directionally-cloned into pGEX-KG expression vector; GST (N, cleaved yes); made in house; LB medium, IPTG induction
T1 sequence (P30043 1-206): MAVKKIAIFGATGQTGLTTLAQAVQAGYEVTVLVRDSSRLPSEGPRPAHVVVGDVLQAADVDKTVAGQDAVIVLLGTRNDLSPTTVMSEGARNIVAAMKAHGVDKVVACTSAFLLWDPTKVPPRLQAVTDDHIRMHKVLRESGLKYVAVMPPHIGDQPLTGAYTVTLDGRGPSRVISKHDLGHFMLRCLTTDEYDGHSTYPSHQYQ
As to the kind of experiment: BLVRB flavin reductase inhibition assay (FMN/NADPH, absorbance at 340 nm). The assay is classed as biochemical. The conditions noted are these: 300 nM recombinant BLVRB, 200 μM FMN, 100 μM NADPH, 100 mM potassium phosphate pH 7.6, 37° C.; read-out: IC50, concentration of inhibitor needed to inhibit the target enzyme by 50% (flavin reductase activity of BLVRB). The procedure:
In one embodiment, the agent is a. chemical compound. An example of such a compound is described in Example 7. Inhibition of enzyme activity by the compound was tested in a reaction containing 100 mM potassium phosphate, pH 7.6, 200 μM FMN (flavin mononucleotide), 100 μM NADPH.
Reactions were initiated by the addition of 300 nM recombinant BLVRB. Enzymatic activity was monitored by following the decrease in absorbance at 340 nm which corresponds to the oxidation of NADPH to NADP^+. […] (FIG. 9)

In the case of `CC(C)(C)OO` [TBHP, tert-butyl hydroperoxide], the EC50 in assay [1] came out at 200 µM.

Turning to `COc1ccc2nc3cc(Cl)ccc3c(Nc3ccc(O)c(CN4CCN(C)CC4)c3)c2c1` [compound 1301], the IC50 in assay [2] was found to be 30.7 µM.

(Values after US10543286B2, “Methods for increasing platelet count by inhibiting biliverdin IXβ reductase” (The Research Foundation for The State University of New York, priority 2015, dated 2020).)
